Data reported in paper PMC9745132, “Visualization of real-time receptor endocytosis in dopamine neurons enabled by NTSR1-Venus knock-in mice” (Frontiers in Cellular Neuroscience, 2022).
Where a name gives a salt, the structure may show the parent alone. *1 amine or outer side, *2 acyl side, *3 side chain or, on linkers, in order; H or OH if unused. Where a SMILES comes first, the peptide text is derived from it. [ ]: non-standard residue; d: D form. X1 = NCCCC[C@H](N)CN([C@@H](CCCCN)C(=O)[*:2])[*:1]; Tle = CC(C)(C)[C@H](N)C(=O)O

Legend:
[1] = system: hippocampal neurons from Ntsr1^Venus/Venus mice; assay: Intracellular calcium release (Fluo-4) in hippocampal neurons from Ntsr1^Venus/Venus mice; assay type: cell-based, mouse
Procedure: To isolate hippocampal neurons, P0 pups were removed from the cage of NTSR1-Venus homozygous knock-in breeding pairs. Pups were decapitated, brains were removed dorsal side up into fresh ice-cold Hank’s balanced salt solution (HBSS; Gibco, Grand Island, NY, USA), meninges were removed, and hippocampi were dissected into Hibernate A (Gibco, Grand Island, NY, USA) on ice. Tissue dissociation was carried out with the Papain Dissociation System according to the manufacturer’s protocol (Worthington Biochemical Corporation, Lakewood, NJ, USA). Neurons were plated on Poly-D-Lysine (Sigma) coated surfaces at 100,000 cells per 12 mm coverslip (NeuVitro, Camas, WA, USA) in a 24-well plate for immunostaining or 50,000 cells per well of an 8 well chamber slide (Ibidi, Grafelfing, Germany) for calcium measurements. Plating media [Neurobasal A (Gibco, Grand Island, NY, USA), 1% FBS (Fisher Scientific), 2% B-27 (Gibco, Grand Island, NY, USA), 0.5 mM GlutaMAX (Gibco, Grand Island, NY, USA), and 1x Penicillin/Streptomycin (Invitrogen, Waltham, MA, USA)] was exchanged 1 h after plating to maintenance media (Neurobasal A, 2% B-27, 0.5 mM GlutaMAX, and 1x Penicillin/Streptomycin). Half of the volume of media was exchanged for fresh media every 3–4 days. On day in vitro (DIV) 3 Cytosine arabinoside hydrochloride (Sigma) was added to media with a final concentration of 0.1 μM to decrease glial cell proliferation.
Hippocampal neurons were grown until DIV 7. Fluo-4 NW Calcium Assay kit (Thermo Fisher) was used according to the manufacturer’s protocol. Briefly, drugs were prepared at 4 μM stock solutions in the assay buffer provided without probenecid. […] Fluorescence was imaged with a 10x objective on an (Olympus, Shinjuku City, Tokyo, Japan) IX73 microscope (Fluo-4 em. 506 nm).
Live imaging settings of Fluo-4 were as follows, 79 ms exposure, 2 s intervals for 90 cycles (180 s). […] First regions of interest (ROI) were automatically determined using the analyze particles plug in. […] Relative fluorescence is defined as F/F0 where F corresponds to the cell fluorescence and F0 to the basal fluorescence.

[2] = system: hippocampal neurons from Ntsr1^WT/WT mice; assay: Intracellular calcium release (Fluo-4) in hippocampal neurons from Ntsr1^WT/WT mice; assay type: cell-based, mouse
[3] = biological target: T1, NTSR1-Venus (Mus musculus, UniProt O88319); assay: Multiphoton imaging of NTSR1-Venus internalization in acute SN/VTA brain slices; assay type: cell-based; conditions: 10 μM on slices recovered in 1 μM SR48692
T1 construct: monitoring endogenous NTSR1-Venus receptor endocytosis could differentiate NTSR1 agonists; endogenous in cells; host or cells: primary hippocampal neurons from homozygous NTSR1-Venus knock-in mice (C57BL/6N background)
Procedure: Male and female Ntsr1^Venus/Venus mice aged 5 weeks were anesthetized, and 250 μm-thick coronal slices containing substantia nigra pars compacta and ventral tegmental area were prepared. Cutting solution contained (in mM): 87 NaCl, 25 NaHCO3, 25 glucose, 75 sucrose, 2.5 KCl, 1.25 NaH2PO4, 0.5 CaCl2, and 7 MgCl2; bubbled with 5% CO2/95%O2; 4°C. Following cutting, slices were incubated in the same solution for 30 min at 33°C. For control experiments, slices were subsequently incubated in the same solution at room temperature until imaging. For antagonist experiments, slices were subsequently incubated in cutting solution with 1 μM SR48962 until imaging. SR48962 was prepared as a 1 mM stock in water.
Imaging solution referred to as aCSF contained (in mM): 125 NaCl, 2.5 KCl, 2 CaCl2, 1 MgCl2, 25 NaHCO3, 1.25 NaH2PO4, 25 glucose; bubbled with 5% CO2/95% O2; 31–34°C, ∼310 mOsm. For antagonist-only experiments, 1 μM SR48962 was added to the imaging solution. For antagonist plus agonist experiments, a baseline image was taken with no NTSR1 agonist or antagonist in the imaging solution, and subsequently, 10 μM PD149163 [prepared from a stock solution in water] was added to the imaging solution. As a precautionary measure, all components that were exposed to antagonist were rinsed first with 70% ethanol and then water. All components that were exposed to agonist were replaced between experiments.
For two-photon laser scanning microscopy (2PLSM), a 2-photon source (Coherent Ultra II, Santa Clara, CA, USA) was tuned to 920 nm for imaging. […] Both epi and transfluorescence were detected with R9110 photomultiplier tubes (Hamamatsu, Shizuoka, Japan). Laser power measured at the focal plane under the objective was between 8 and 34 mW. […]
To test whether NTSR1 receptors are indeed being bound by endogenous ligand in acute slice, we compared NTSR1 distribution in slices treated with the NTSR1 specific antagonist, SR48692 ([Gully et al., 1993]). […] NTSR1-Venus puncta were then quantified in the acquired image projections by counting vesicle-sized particles (Figure 5E). […]

T1 sequence (O88319 whole entry): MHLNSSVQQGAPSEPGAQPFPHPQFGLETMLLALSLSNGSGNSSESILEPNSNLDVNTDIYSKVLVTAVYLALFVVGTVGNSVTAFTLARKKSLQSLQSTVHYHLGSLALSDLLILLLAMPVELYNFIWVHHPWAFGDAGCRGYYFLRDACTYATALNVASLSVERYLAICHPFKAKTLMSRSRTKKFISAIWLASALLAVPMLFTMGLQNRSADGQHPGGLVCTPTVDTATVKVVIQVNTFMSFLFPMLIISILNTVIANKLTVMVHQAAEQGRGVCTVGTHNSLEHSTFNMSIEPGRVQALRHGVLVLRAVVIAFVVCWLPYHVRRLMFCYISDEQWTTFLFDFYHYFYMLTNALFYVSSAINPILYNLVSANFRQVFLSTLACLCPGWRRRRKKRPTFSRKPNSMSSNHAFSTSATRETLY

With `CCOC(=O)[C@H](CC(C)C)NC(=O)[C@@H](NC(=O)[C@H](Cc1c[nH]c2ccccc12)NC(=O)[C@@H]1CCCN1C(=O)[C@H](CCCCN)NC[C@@H](N)CCCCN)C(C)(C)C` [PD149163, PD149163 tetrahydrochloride hydrate] (H-[X1]PW[Tle]L-OEt; N-terminus and C-terminus assumed) the “intracellular calcium peak increase” value ([1]; 0.1 μM) was 2 fold, the “intracellular calcium peak increase” value ([1]; 1 μM) was 2 fold and the “intracellular calcium peak increase” value ([2]; 0.1 μM) was 2 fold. For the same compound, the “intracellular calcium peak increase” value ([2]; 1 μM) was 2 fold, the “vesicle-sized particle counts (NTSR1-Venus puncta) vs antagonist-only treated slices” value [3] was “significantly higher than antagonist-only treated slices at 15, 30, 45, and 60 min” and the “vesicle-sized particle counts (NTSR1-Venus puncta) vs control slices” value [3] was “significantly higher than controls at 30, 45, and 60 min”.
